These results are taken from US20250122250A1, “AUXIN-DEGRON SYSTEM KIT AND USE THEREFOR” (Inter-University Research Institute Corporation Research …, priority 2021, published 2025).

In one data set the test system is nematodes. As to the kind of experiment: number of progeny of L1 larvae grown in the presence of ligand. Type of data set: in vivo, C. elegans. The following applies: 5 μM 5-Ph-IAA, L1 larvae expressing AID*::GFP with AtTIR1 (F79G). The method, then: Next, in order to confirm that 5-Ph-IAA is safer than IAA against nematodes, L1 larvae expressing AID*::GFP were each grown with AtTIR1 or AtTIR1 (F79G) in the presence of 1 mM IAA or 5 μM 5-Ph-IAA.

For data set [1], the target named is T1, AtTIR1 (F79G) (Arabidopsis thaliana, UniProt Q570C0, D170E/F79G/M473L). Nature of the data set: AID*::GFP reporter degradation in embryos expressing AtTIR1 (F79G)::mRuby. Type of data set: in vivo. Details: expressed in transfected cells. The method, then: Rapid removal of the target in the embryos is useful for analyzing a role of a protein in embryogenesis. Initially, 5-Ph-IAA was used to test the efficacy of protein removal in embryos. An egg-planting embryo expressing AtTIR1 (F79G)::mRuby and AID*::GFP was placed in a droplet of an M9 buffer including 50 μM 5-Ph-IAA, and then the reporter intensity was monitored (see FIG. 4A).
T1 sequence (Q570C0 whole entry F79G/D170E/M473L): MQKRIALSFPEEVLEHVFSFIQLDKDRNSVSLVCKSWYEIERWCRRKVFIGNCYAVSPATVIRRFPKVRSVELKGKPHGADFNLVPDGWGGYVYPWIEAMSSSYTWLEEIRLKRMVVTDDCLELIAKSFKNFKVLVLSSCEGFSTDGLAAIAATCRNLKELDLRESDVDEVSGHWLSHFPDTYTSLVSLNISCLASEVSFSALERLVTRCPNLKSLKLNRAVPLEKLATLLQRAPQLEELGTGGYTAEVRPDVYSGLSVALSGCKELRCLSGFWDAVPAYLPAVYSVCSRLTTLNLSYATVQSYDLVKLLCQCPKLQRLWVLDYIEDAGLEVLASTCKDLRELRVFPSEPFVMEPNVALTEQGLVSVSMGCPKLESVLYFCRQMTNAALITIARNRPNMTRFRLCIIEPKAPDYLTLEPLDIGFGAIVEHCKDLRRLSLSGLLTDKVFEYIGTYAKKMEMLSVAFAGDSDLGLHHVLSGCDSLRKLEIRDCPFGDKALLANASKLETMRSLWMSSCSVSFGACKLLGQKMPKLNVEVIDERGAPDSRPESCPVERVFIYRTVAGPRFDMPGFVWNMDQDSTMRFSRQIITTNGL
T1 sequence (G5ECU1 whole entry, further chain): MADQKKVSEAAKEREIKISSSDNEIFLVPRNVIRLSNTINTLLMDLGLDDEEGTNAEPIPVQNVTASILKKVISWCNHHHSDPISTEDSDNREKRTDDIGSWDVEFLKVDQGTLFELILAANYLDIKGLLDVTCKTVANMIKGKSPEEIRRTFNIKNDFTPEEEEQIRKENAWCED
T1 sequence (P93830 71-114, further chain): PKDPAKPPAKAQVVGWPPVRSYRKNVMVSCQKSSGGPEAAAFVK
An egg-planting embryo expressing AtTIR1 (F79G)::mRuby and AID*::GFP was placed in a droplet of an M9 buffer including 50 μM 5-Ph-IAA-AM, and then the reporter intensity was monitored (see FIG. 4D).

Data set [2] has as its target T1, AtTIR1 (F79G). Type of data set: in vivo. Details: expressed in transfected cells; host or cells: transgenic C. elegans (CRISPR-Cas9 knock-in at the ttTi5605 locus; larvae, adults, embryos). The method, then: (§1) Next, L1 larvae were grown on plates including ligands at different concentrations. The intensity of the AID*::GFP reporter of larvae (second generation) born from adults was monitored.
(§2) Furthermore, the efficacy of the AID2 system in adults was tested.

For data set [3], the target named is T1, AtTIR1 (F79G). Nature of the data set: AID*::GFP reporter degradation in adult nematodes expressing AtTIR1 (F79G). The class given is in vivo. Details: expressed in transfected cells; host or cells: transgenic C. elegans (CRISPR-Cas9 knock-in at the ttTi5605 locus; larvae, adults, embryos). The following applies: 5 μM 5-Ph-IAA for 4 hours. The method, then:
as §2

The target of a further data set is T2, AtTIR1 (Arabidopsis thaliana, UniProt Q570C0, D170E/M473L).
T2 construct: expressed in transfected cells; host or cells: transgenic C. elegans (larvae)
T2 sequence (G5ECU1 whole entry): as the sequence (G5ECU1 whole entry, further chain) above
T2 sequence (Q570C0 whole entry D170E/M473L): as the sequence (Q570C0 whole entry F79G/D170E/M473L) above, with G79F counted along it
T2 sequence (P93830 71-114, further chain): as the sequence (P93830 71-114, further chain) above
Nature of the data set: AID*::GFP reporter level in second generation larvae expressing AtTIR1, grown on ligand plates. Type of data set: in vivo. The following applies: combined with AtTIR1, larvae treated for one generation; read-out: estimated DC50 value (ligand concentrations required for 50% degradation). The method, then: as §1, §2

For data set [4], the target named is AID*::GFP (Arabidopsis thaliana).
For data set [5] the target is unchanged. The source holds these as a separate data set.
Data set [6] has the same target. The source holds these as a separate data set.

In the case of `O=C(O)Cc1c[nH]c2ccc(-c3ccccc3)cc12` [5-Ph-IAA, 5-phenylindole-3-acetic acid], the number of progeny result in the data set with nematodes is “showed no difference”. Besides, at AtTIR1 (F79G) [1] (50 μM 5-Ph-IAA, embryos), the “time at which degradation of the reporter reached the maximum” value lay within 15 to 30 min. Further, the “embryos with rapid decrease of fluorescence intensity” value on AtTIR1 (F79G) [1] (50 μM in M9 buffer, 18/23 embryos) was found to be 78%; at AtTIR1 (F79G) [1] (100 μM, 16/20 embryos) it was 80%. Further, the “AID*::GFP reporter expression in second generation larvae” value on AtTIR1 (F79G) [2] (5.0 μM 5-Ph-IAA, among different ligand concentrations) is “lowest reporter expression”. Further, on AtTIR1 (F79G) [2] (long-term treatment, AID2 system vs AID system), the “ligand concentration required, times lower than that of the AID system (IAA with AtTIR1)” value is on record as “about 1,300 times”. For the same compound, at AtTIR1 (F79G) [2] (read-out: estimated DC50 value (ligand concentrations required for 50% degradation), combined with AtTIR1 (F79G), larvae treated for one generation), the DC50 was 0.0045 µM. In addition, the “AID*::GFP reporter in adults” value at AtTIR1 (F79G) [3] is “a loss of the reporter was observed”.

As to `CC(=O)OCOC(=O)Cc1c[nH]c2ccc(-c3ccccc3)cc12` [5-Ph-IAA-AM, 5-phenylindole 3-acetic acid acetoxymethyl ester], the “degradation of AID*::GFP reporter in embryos” value on AtTIR1 (F79G) [1] (50 μM 5-Ph-IAA-AM in M9 buffer) is “rapid degradation in all embryos”.

For the compound `O=C(O)Cc1c[nH]c2ccccc12` [IAA], the DC50 at AtTIR1 was 59 µM.

In data set [4], AtTIR1 (F79G)::mRuby gave a half-life of the AID*::GFP reporter level in larvae treated with 5 µM 5-Ph-IAA of 15.5 min. In data set [5], this compound gave a DC50 (ligand concentration required for 50% degradation) of 5-Ph-IAA, AID*::GFP reporter in larvae treated for one generation of 0.0045 µM.

AtTIR1::mRuby: the intensity of AID*::GFP in larvae, no ligand added (basal degradation) in data set [6] was 73%. The same compound registered a half-life of the AID*::GFP reporter level in larvae treated with 1 mM IAA in data set [4] of 16.8 min. In addition, the DC50 (ligand concentration required for 50% degradation) of IAA, AID*::GFP reporter in larvae treated for one generation in data set [5] was determined as 59 µM.
